{
  "source": "patent US9220718B2",
  "about": "“Sonosensitive liposome, pharmaceutical composition including the same, and method of delivering active agent to subject using the sonosensitive liposome” (Samsung Electronics Co., Ltd., priority 2013, dated 2015)",
  "test_system": "Hela cells",
  "test": "Cell viability by WST assay (WST-8, Cell Counting Kit-8)",
  "type": "cell-based",
  "conditions": "10 ul of radical DX, 20 ug/ml of distilled water",
  "experimental": "The same liposomes were exposed to ultrasound for 5 minutes at different amplitudes (i.e., 50%, 75%, and 100% of the maximum amplitude) at a frequency of 20 kHz. 10 ul of the sonicated liposomes (DX concentration of 20 ug/ml) was immediately added to Hela cells as described above, and then, incubated for 30 minutes. As a control group, a group treated with 10 ul of PBS, a group treated with 10 ul of radical DX (20 ug/ml of distilled water), and a group wherein HeLa cells are incubated at a temperature of 42° C. were all included. The cell viability thereof was obtained by counting viable cells using a WST assay [2-(2-methoxy-4-nitrophenyl)-3-(4-nitrophenyl)-5-(2,4-disulfophenyl)-2H-tetrazolium, monosodium salts] (WST-8, Cell Counting Kit-8, Dojindo, Japan).",
  "data": [
    {"molecule": "COc1cccc2c1C(=O)c1c(O)c3c(c(O)c1C2=O)C[C@@](O)(C(=O)CO)C[C@@H]3O[C@H]1C[C@H](N)[C@H](O)[C@H](C)O1", "note": "[radical Dx, Doxorubicin]", "values": [
      {"measurement": "cell viability, compared with the sonicated liposomes (about 15%)", "result": "similar"}
    ]}
  ]
}
